Assay results taken from ChEMBL document CHEMBL5303573, “Mapping human microbiome drug metabolism by gut bacteria and their genes” (Nature, 2019).

How the values were obtained:
Assay type in all cases: ADME
Design in all cases: dose 2 uM
Details in all cases: 2 µM
[1] = target: T1, Acetyl esterase (Acetylxylosidase) (Bacteroides thetaiotaomicron, UniProt Q8ABF8); test: (§1) The drug is tested on Bacteroides thetaiotaomicron strain: VPI-5482 for biotransformation. The drug concentrations were measured before and after a 12-h incubation by liquid-chromatography-coupled mass spectrometry (LC–MS)
T1 sequence (Q8ABF8 whole entry): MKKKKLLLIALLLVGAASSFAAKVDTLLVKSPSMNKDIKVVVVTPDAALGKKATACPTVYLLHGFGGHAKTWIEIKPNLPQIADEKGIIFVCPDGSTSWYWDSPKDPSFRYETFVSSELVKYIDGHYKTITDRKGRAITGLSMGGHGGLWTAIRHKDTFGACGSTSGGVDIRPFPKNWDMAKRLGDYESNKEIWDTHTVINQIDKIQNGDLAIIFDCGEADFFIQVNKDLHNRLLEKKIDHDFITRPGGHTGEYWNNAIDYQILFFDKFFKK

Acylhydrolase = target: T2, Acylhydrolase (Bacteroides thetaiotaomicron, UniProt Q8AA96); test: as §1
T2 sequence (Q8AA96 whole entry): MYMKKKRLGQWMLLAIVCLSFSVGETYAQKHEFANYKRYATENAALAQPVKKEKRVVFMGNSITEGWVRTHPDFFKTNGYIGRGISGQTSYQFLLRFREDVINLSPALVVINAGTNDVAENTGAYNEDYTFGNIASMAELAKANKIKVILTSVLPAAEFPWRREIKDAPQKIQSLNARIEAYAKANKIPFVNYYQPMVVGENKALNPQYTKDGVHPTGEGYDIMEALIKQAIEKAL

General stress protein = General stress protein (Bacteroides thetaiotaomicron, UniProt Q8A7U5); test: as §1
Lipase = target: T3, Lipase (Bacteroides thetaiotaomicron, UniProt Q8A3J3); test: as §1
T3 sequence (Q8A3J3 whole entry): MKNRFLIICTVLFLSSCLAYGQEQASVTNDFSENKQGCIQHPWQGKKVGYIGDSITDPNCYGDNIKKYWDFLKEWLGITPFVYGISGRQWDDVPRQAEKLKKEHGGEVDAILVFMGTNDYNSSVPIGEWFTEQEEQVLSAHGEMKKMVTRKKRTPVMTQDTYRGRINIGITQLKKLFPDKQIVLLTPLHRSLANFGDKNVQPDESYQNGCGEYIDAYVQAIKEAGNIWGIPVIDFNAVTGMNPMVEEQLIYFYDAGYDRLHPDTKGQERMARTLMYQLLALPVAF

[2] = target: T4, Lipolytic enzyme, G-D-S-L family (Bacteroides thetaiotaomicron, UniProt Q8A0E6); test: as §1
T4 sequence (Q8A0E6 whole entry): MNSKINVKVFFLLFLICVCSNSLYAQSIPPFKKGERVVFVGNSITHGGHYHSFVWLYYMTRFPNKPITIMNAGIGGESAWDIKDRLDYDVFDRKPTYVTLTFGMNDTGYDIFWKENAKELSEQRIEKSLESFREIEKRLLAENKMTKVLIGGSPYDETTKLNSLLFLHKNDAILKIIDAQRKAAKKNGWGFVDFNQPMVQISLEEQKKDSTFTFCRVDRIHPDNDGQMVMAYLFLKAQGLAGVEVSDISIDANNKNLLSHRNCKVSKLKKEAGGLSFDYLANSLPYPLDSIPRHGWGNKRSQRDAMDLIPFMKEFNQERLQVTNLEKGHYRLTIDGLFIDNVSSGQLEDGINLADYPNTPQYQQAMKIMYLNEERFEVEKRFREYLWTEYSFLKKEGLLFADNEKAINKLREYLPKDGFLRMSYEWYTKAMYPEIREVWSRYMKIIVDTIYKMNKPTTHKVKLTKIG

[3] = target: T5, NADH dehydrogenase/NAD(P)H nitroreductase (Bacteroides thetaiotaomicron, UniProt Q8A8L9); test: as §1
T5 sequence (Q8A8L9 whole entry): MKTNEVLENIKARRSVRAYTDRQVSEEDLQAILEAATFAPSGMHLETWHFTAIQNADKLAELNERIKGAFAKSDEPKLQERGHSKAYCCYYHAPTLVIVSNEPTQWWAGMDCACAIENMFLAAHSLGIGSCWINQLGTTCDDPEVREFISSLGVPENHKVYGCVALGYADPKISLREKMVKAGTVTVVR

Nitroreductase = target: T6, Nitroreductase (Bacteroides thetaiotaomicron, UniProt Q8A911); test: as §1
T6 sequence (Q8A911 whole entry): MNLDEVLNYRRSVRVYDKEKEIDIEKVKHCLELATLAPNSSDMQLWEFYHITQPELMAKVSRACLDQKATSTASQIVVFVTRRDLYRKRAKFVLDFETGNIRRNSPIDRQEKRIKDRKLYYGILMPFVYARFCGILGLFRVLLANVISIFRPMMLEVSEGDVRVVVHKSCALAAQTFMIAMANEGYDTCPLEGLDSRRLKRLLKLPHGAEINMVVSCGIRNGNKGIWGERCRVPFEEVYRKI

[4] = target: T7, Nitroreductase-like protein (Bacteroides thetaiotaomicron, UniProt Q8AB93); test: as §1
T7 sequence (Q8AB93 whole entry): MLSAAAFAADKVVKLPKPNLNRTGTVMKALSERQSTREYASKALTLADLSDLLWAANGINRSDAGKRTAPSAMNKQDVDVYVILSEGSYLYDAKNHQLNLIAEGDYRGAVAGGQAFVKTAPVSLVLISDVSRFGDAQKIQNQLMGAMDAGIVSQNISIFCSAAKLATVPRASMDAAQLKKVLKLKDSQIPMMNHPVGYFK

Regulatory protein = target: T8, Regulatory protein (Bacteroides thetaiotaomicron, UniProt Q8A576); test: as §1
T8 sequence (Q8A576 whole entry): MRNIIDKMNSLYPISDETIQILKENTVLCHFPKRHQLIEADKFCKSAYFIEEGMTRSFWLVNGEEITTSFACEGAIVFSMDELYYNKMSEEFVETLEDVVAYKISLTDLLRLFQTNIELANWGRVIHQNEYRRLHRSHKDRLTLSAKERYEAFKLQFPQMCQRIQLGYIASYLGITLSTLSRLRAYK

[5] = target: T9, Sialic acid-specific 9-O-acetylesterase (Bacteroides thetaiotaomicron, UniProt Q8A0D0); test: as §1
T9 sequence (Q8A0D0 whole entry): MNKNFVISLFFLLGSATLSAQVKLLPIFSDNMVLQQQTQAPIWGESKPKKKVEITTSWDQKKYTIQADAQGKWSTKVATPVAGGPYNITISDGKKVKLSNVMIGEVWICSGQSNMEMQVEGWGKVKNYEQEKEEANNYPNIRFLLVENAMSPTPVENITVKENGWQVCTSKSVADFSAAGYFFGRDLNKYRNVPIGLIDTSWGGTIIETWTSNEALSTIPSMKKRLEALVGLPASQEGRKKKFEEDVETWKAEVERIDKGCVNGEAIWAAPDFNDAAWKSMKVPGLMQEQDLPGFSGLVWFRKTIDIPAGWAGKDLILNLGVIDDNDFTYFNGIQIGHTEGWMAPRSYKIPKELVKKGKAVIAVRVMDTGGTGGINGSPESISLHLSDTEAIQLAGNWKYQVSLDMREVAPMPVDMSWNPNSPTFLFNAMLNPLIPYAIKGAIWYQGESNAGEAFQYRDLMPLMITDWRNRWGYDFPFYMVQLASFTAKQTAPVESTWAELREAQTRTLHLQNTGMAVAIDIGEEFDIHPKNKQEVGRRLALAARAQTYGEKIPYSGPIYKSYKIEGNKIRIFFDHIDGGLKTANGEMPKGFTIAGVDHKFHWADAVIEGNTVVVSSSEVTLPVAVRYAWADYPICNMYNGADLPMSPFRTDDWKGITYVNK

Measured: Bacterial Biotransformation

Chain of General stress protein (Q8A7U5 1-138, change not shown): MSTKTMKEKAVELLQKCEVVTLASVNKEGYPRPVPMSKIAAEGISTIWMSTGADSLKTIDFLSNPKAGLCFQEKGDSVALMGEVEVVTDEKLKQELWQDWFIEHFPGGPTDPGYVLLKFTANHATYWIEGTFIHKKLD

C[C@]12CCC(=O)C=C1[C@@H]1C[C@@H]1[C@H]1[C@@H]3[C@@H]4C[C@@H]4[C@@]4(CCC(=O)O4)[C@@]3(C)CC[C@@H]12 [DROSPIRENONE]
Compound NOT metabolized: [1] | Acylhydrolase | General stress protein | Lipase | [2] | [3] | Nitroreductase | [4] | Regulatory protein | [5]
